We go through 12 compounds from ChEMBL document CHEMBL1201862, “PubChem BioAssay data set” (2004).

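Five concentrations, 48 hours, 96-well plates. Abbreviation: GI50, concentration required for 50% inhibition of growth.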 Activity calls are given as the source filed them. Cut-off read from the data, not from the text of the source: active = GI50 up to about 1.1 µM and inactive = higher.

What all share (assay): NCI anticancer screen, dose series, 48 h
In test [1] the test system is SK-MEL-5.
Test [2] deals with OVCAR-5.
For test [3], the system named is SK-MEL-2.
The test system of test [4] is OVCAR-4.
Test [5] deals with EKVX.
Test [6] concerns HCT-15.
In test [7] the test system is TK-10.
Test [8] has as its system NCI-H23.
The test system of test [9] is A498.
Test [10] deals with ACHN.
In test [11] the test system is SNB-75.
Test [12] relates to HOP-92.
For test [13], the system named is U-251.
Test [14] has as its system A549.
The subject of test [15] is SF-295.
The subject of test [16] is LOX IMVI.
The subject of test [17] is HCC 2998.
Test [18] concerns MDA-MB-435.
Test [19] concerns Hs-578T.

Consider `c1cncc(C2N3CCCCC3[C@@H]3c4[nH]c5ccccc5c4CCN23)c1` (some centres not stated), for which the GI50 is > 100 µM (inactive) in [1]; > 100 µM (inactive) in [2]; > 100 µM (inactive) in test [3]; > 100 µM (inactive) in [4]; > 100 µM (inactive) in test [5]; more than 100 µM in test [6]. Moreover, the GI50 in test [7], in test [8], in [9], in test [10], in [11] and in test [12] was > 100 µM (inactive) in each case. The GI50 in [13], in test [14] and in test [15] was > 100 µM (inactive) each time.

For `CNc1nnc(CNc2ccc(-c3nnc(NC)n3N)cc2)n1N`, the GI50 is > 100 µM (inactive) in [1]; > 100 µM (inactive) in test [2]; > 100 µM (inactive) in [3]; > 100 µM (inactive) in test [4]; > 100 µM (inactive) in test [5]; more than 100 µM in test [6]. Further, the GI50 in test [7], in test [8], in test [9], in test [10], in test [16] and in [11] was > 100 µM (inactive) each time. Further, the GI50 in [12] was > 100 µM (inactive); in test [13] it was > 100 µM (inactive); in test [17], < 0.01 µM (active); in test [14], > 100 µM (inactive); in test [15], > 100 µM (inactive); in test [18], > 100 µM (inactive).

Turning to `O/N=N/c1ccc(Sc2ccc(/N=N/O)cn2)nc1`, the GI50 in test [1] was > 100 µM (inactive); in test [2], > 100 µM (inactive); in test [19], > 100 µM (inactive); in [4], > 100 µM (inactive); in test [5] it was > 100 µM (inactive); in test [6], more than 100 µM. The GI50 in [7], in [8], in test [9], in test [10], in test [11] and in [13] was > 100 µM (inactive) throughout. Further, the GI50 in test [17], in [14] and in test [15] was > 100 µM (inactive) in each case.

Regarding `CC(C)(C)OC(=O)[C@H]1CCC(=S)N1Cc1ccccc1`, the GI50 is > 100 µM (inactive) in test [1]; > 100 µM (inactive) in test [2]; > 100 µM (inactive) in [3]; > 100 µM (inactive) in test [4]; > 100 µM (inactive) in test [5]; more than 100 µM in test [6]. For the same compound, the GI50 in test [7], in test [8], in test [9], in test [10], in test [16] and in test [11] was > 100 µM (inactive) each time. The GI50 in test [12], in [13], in [17], in test [14], in [15] and in [18] was > 100 µM (inactive) throughout.

With `C#CC1(O)CCC2C3CCc4cc(Oc5nc(F)nc(-c6c7ccccc7c7sc8ccccc8n67)n5)ccc4C3CC[C@@]21C` (some centres not stated), the GI50 is > 100 µM (inactive) in test [1]; > 100 µM (inactive) in test [2]; > 100 µM (inactive) in test [3]; > 100 µM (inactive) in test [4]; more than 100 µM in [6]; > 100 µM (inactive) in test [7]. For the same compound, the GI50 in test [8] was 33.3 µM (inactive); in test [10], > 100 µM (inactive); in [11], 22.1 µM (inactive); in [12], > 100 µM (inactive); in test [13], 75.7 µM (inactive); in test [17] it was > 100 µM (inactive). For the same compound, the GI50 in [14] and in test [15] was > 100 µM (inactive) in each case.

As to `C/C(CN1C(=O)c2ccccc2C1=O)=N\NS(=O)(=O)c1ccc(C)cc1`, the GI50 was > 100 µM (inactive) in test [1]; > 100 µM (inactive) in test [2]; > 100 µM (inactive) in test [3]; > 100 µM (inactive) in test [4]; > 100 µM (inactive) in test [5]; more than 100 µM in test [6]. The GI50 in test [7], in test [8], in test [9], in test [10], in test [11] and in test [13] was > 100 µM (inactive) each time. For the same compound, the GI50 in test [17], in [14] and in test [15] was > 100 µM (inactive) each time.

For the compound `CC(CO)CCC(O)C(C)(O)C1CCC2(O)C3=CC(=O)C4CC(O)C(O)CC4(C)C3CCC12C` (configuration not stated), the GI50 in [1] was > 100 µM (inactive); in test [2], > 100 µM (inactive); in [3], > 100 µM (inactive); in test [4] it was > 100 µM (inactive); in test [5] it was > 100 µM (inactive); in test [6] it was more than 100 µM. Also, the GI50 is > 100 µM (inactive) in test [8]; > 100 µM (inactive) in test [9]; > 100 µM (inactive) in test [10]; > 100 µM (inactive) in test [16]; 84.3 µM (inactive) in test [11]; > 100 µM (inactive) in [12]. Also, the GI50 in [13], in test [17], in test [14], in [15] and in test [18] was > 100 µM (inactive) throughout.

In the case of `COc1cccc2c1OC(c1cccc3ccccc13)C([N+](=O)[O-])=C2` (configuration not stated), the GI50 in test [1] was 1.59 µM (inactive); in [2] it was 1.82 µM (inactive); in test [19], 2.48 µM (inactive); in [4], 3.32 µM (inactive); in [5], 3.07 µM (inactive); in test [6] it was 1.55 µM. In addition, the GI50 in [7] was 2.32 µM (inactive); in [8], 1.84 µM (inactive); in [10] it was 1.6 µM (inactive); in [16], 1.04 µM (active); in test [11] it was 1.32 µM (inactive); in test [13] it was 1.56 µM (inactive). Further, the figures for the GI50 in test [14], in test [15] and in test [18] were 1.95 µM (inactive), 1.88 µM (inactive) and 1.51 µM (inactive), respectively.

On to `N/N=C1\C(=O)N(C2CCCCCC2)C(=O)C1C(=O)NC1CCCCCC1` (configuration not stated), for which the GI50 in [1] is 17.1 µM (inactive); in test [2], 39.3 µM (inactive); in [3], 19.1 µM (inactive); in test [4], 28.3 µM (inactive); in [5], 32.7 µM (inactive); in [6], 30 µM. Besides, the GI50 in [7] was > 10 µM (inactive); in test [8] it was 22.4 µM (inactive); in test [9] it was 38 µM (inactive); in test [10], 42.2 µM (inactive); in test [12], 21.3 µM (inactive); in [13] it was 15.8 µM (inactive). For the same compound, the values for the GI50 in test [17], in test [14] and in test [15] were 25.6 µM (inactive), 49.1 µM (inactive) and 45.2 µM (inactive), respectively.

Regarding `CCNC(=S)NNC(=O)c1csc(NC(=S)NC2CCCCC2)n1`, the GI50 in [1] was 2.79 µM (inactive); in test [2], 26.9 µM (inactive); in [3], 12.3 µM (inactive); in [4] it was 7.91 µM (inactive); in test [5] it was > 100 µM (inactive); in test [6] it was 1.67 µM. In addition, the GI50 in test [7] is 19.1 µM (inactive); in [8], 22.8 µM (inactive); in [9], 23 µM (inactive); in test [10], 7 µM (inactive); in test [16] it was 5.83 µM (inactive); in test [13], 9.95 µM (inactive). Also, the GI50 in test [17] was 8.17 µM (inactive); in test [14], 16.9 µM (inactive); in test [15] it was 10.2 µM (inactive); in test [18] it was 4.1 µM (inactive).

With `COC1=CC(=O)C2[C@H]3Cc4ccccc4[C@H]3C2(C)C1=O` (some centres not stated), the GI50 in test [1] was > 100 µM (inactive); in [2] it was > 100 µM (inactive); in [3], > 100 µM (inactive); in test [4], > 100 µM (inactive); in [5] it was > 100 µM (inactive); in test [6], 94.6 µM. Besides, the GI50 in test [7] was > 100 µM (inactive); in test [8] it was > 100 µM (inactive); in test [9], > 100 µM (inactive); in test [10], > 100 µM (inactive); in test [16] it was > 100 µM (inactive); in test [11], 16.9 µM (inactive). In addition, the GI50 in [12], in [13], in test [17], in test [14] and in [15] was > 100 µM (inactive) throughout.

Turning to `Oc1c(NCn2nc(CCCCCCCCc3nn(CNc4ccc5ccccc5c4O)c(=S)o3)oc2=S)ccc2ccccc12`, the GI50 was 30.4 µM (inactive) in test [1]; 43.9 µM (inactive) in test [2]; 42.8 µM (inactive) in [3]; 76.2 µM (inactive) in test [4]; > 100 µM (inactive) in test [5]; 35.6 µM in test [6]. For the same compound, the GI50 in [7] was 68.1 µM (inactive); in [8], 97.5 µM (inactive); in test [9], > 100 µM (inactive); in [10] it was > 100 µM (inactive); in test [11] it was > 100 µM (inactive); in test [12] it was > 100 µM (inactive). For the same compound, the GI50 in test [13] is 86.5 µM (inactive); in test [17] it was > 100 µM (inactive); in [14] it was 44.4 µM (inactive); in [15], 33.7 µM (inactive); in [18] it was 12.5 µM (inactive).
